Test results: PMC10838953

Legend:
SIK = SIK (Homo sapiens, UniProt P57059); assay: biochemical; conditions: read-out: %Ctrl @ 2000nM
PKNB(M.tuberculosis) = PKNB(M.tuberculosis) (Mycobacterium tuberculosis, UniProt P9WI81); assay: biochemical; conditions: read-out: %Ctrl @ 2000nM
GRK7 = GRK7 (Homo sapiens, UniProt Q8WTQ7); assay: biochemical; conditions: read-out: %Ctrl @ 2000nM
CDKL1 = CDKL1 (Homo sapiens, UniProt Q00532); assay: biochemical; conditions: read-out: %Ctrl @ 2000nM
PIK4CB = PIK4CB (Homo sapiens, UniProt Q9UBF8); assay: biochemical; conditions: read-out: %Ctrl @ 2000nM
CDK11 = CDK11 (Homo sapiens, UniProt Q9BWU1); assay: biochemical; conditions: read-out: %Ctrl @ 2000nM
MAP3K15 = MAP3K15 (Homo sapiens, UniProt Q6ZN16); assay: biochemical; conditions: read-out: %Ctrl @ 2000nM
PRKD2 = PRKD2 (Homo sapiens, UniProt Q9BZL6); assay: biochemical; conditions: read-out: %Ctrl @ 2000nM
PRKCE = PRKCE (Homo sapiens, UniProt Q02156); assay: biochemical; conditions: read-out: %Ctrl @ 2000nM
MKNK2 = MKNK2 (Homo sapiens, UniProt Q9HBH9); assay: biochemical; conditions: read-out: %Ctrl @ 2000nM
TNK2 = TNK2 (Homo sapiens, UniProt Q07912); assay: biochemical; conditions: read-out: %Ctrl @ 2000nM
ABL2 = ABL2 (Homo sapiens, UniProt P42684); assay: biochemical; conditions: read-out: %Ctrl @ 2000nM
ANKK1 = ANKK1 (Homo sapiens, UniProt Q8NFD2); assay: biochemical; conditions: read-out: %Ctrl @ 2000nM
DLK = DLK (Homo sapiens, UniProt Q12852); assay: biochemical; conditions: read-out: %Ctrl @ 2000nM
WNK4 = WNK4 (Homo sapiens, UniProt Q96J92); assay: biochemical; conditions: read-out: %Ctrl @ 2000nM
MAP3K2 = MAP3K2 (Homo sapiens, UniProt Q9Y2U5); assay: biochemical; conditions: read-out: %Ctrl @ 2000nM
BMPR1B = BMPR1B (Homo sapiens, UniProt O00238); assay: biochemical; conditions: read-out: %Ctrl @ 2000nM
TAOK3 = TAOK3 (Homo sapiens, UniProt Q9H2K8); assay: biochemical; conditions: read-out: %Ctrl @ 2000nM
IGF1R = IGF1R (Homo sapiens, UniProt P08069); assay: biochemical; conditions: read-out: %Ctrl @ 2000nM
FLT3-autoinhibited = FLT3-autoinhibited (Homo sapiens, UniProt P36888); assay: biochemical; conditions: read-out: %Ctrl @ 2000nM
DCAMKL3 = DCAMKL3 (Homo sapiens, UniProt Q9C098); assay: biochemical; conditions: read-out: %Ctrl @ 2000nM
RET(V804L) = RET(V804L) (Homo sapiens, UniProt P07949, V804L); assay: biochemical; conditions: read-out: %Ctrl @ 2000nM
LKB1 = LKB1 (Homo sapiens, UniProt Q15831); assay: biochemical; conditions: read-out: %Ctrl @ 2000nM
KIT(V559D) = KIT(V559D) (Homo sapiens, UniProt P10721, V559D); assay: biochemical; conditions: read-out: %Ctrl @ 2000nM
GRK2 = GRK2 (Homo sapiens, UniProt P25098); assay: biochemical; conditions: read-out: %Ctrl @ 2000nM
LIMK1 = LIMK1 (Homo sapiens, UniProt P53667); assay: biochemical; conditions: read-out: %Ctrl @ 2000nM
WEE2 = WEE2 (Homo sapiens, UniProt P0C1S8); assay: biochemical; conditions: read-out: %Ctrl @ 2000nM
TYRO3 = TYRO3 (Homo sapiens, UniProt Q06418); assay: biochemical; conditions: read-out: %Ctrl @ 2000nM
FGFR3(G697C) = FGFR3(G697C) (Homo sapiens, UniProt P22607, G697C); assay: biochemical; conditions: read-out: %Ctrl @ 2000nM
DCAMKL2 = DCAMKL2 (Homo sapiens, UniProt Q8N568); assay: biochemical; conditions: read-out: %Ctrl @ 2000nM
[1] = test system: RPTEC (renal proximal tubule epithelial cells); conditions: high concentrations
CDK4-cyclinD3 = CDK4-cyclinD3 (Homo sapiens, UniProt P11802); assay: biochemical; conditions: read-out: %Ctrl @ 2000nM
CLK4 = CLK4 (Homo sapiens, UniProt Q9HAZ1); assay: biochemical; conditions: read-out: %Ctrl @ 2000nM
[2] = target: JAK1(JH2domain-pseudokinase) (Homo sapiens, UniProt P23458); assay: biochemical; conditions: read-out: %Ctrl @ 2000nM
MARK2 = MARK2 (Homo sapiens, UniProt Q7KZI7); assay: biochemical; conditions: read-out: %Ctrl @ 2000nM
IKK-epsilon = IKK-epsilon (Homo sapiens, UniProt Q14164); assay: biochemical; conditions: read-out: %Ctrl @ 2000nM
PKAC-alpha = PKAC-alpha (Homo sapiens, UniProt P17612); assay: biochemical; conditions: read-out: %Ctrl @ 2000nM
CDKL2 = CDKL2 (Homo sapiens, UniProt Q92772); assay: biochemical; conditions: read-out: %Ctrl @ 2000nM
MKNK1 = MKNK1 (Homo sapiens, UniProt Q9BUB5); assay: biochemical; conditions: read-out: %Ctrl @ 2000nM
[3] = target: ABL1(M351T)-phosphorylated (Homo sapiens, UniProt P00519, M351T); assay: biochemical; conditions: read-out: %Ctrl @ 2000nM
786-O cells = conditions: 48 h

Sequence of CDKL2 (Q92772 whole entry): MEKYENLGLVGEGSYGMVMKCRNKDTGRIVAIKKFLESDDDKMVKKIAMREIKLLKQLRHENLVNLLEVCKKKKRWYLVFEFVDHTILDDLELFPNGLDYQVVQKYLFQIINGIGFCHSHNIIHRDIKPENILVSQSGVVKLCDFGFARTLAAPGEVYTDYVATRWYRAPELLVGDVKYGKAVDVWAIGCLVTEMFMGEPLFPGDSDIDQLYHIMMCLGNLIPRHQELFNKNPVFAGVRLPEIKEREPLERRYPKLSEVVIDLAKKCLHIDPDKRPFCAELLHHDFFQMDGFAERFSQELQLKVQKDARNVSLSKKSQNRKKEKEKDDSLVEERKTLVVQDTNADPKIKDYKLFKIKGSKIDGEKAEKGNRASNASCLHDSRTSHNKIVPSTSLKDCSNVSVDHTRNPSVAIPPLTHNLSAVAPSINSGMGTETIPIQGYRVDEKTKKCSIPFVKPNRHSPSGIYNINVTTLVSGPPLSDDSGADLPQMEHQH
Sequence of MARK2 (Q7KZI7 whole entry): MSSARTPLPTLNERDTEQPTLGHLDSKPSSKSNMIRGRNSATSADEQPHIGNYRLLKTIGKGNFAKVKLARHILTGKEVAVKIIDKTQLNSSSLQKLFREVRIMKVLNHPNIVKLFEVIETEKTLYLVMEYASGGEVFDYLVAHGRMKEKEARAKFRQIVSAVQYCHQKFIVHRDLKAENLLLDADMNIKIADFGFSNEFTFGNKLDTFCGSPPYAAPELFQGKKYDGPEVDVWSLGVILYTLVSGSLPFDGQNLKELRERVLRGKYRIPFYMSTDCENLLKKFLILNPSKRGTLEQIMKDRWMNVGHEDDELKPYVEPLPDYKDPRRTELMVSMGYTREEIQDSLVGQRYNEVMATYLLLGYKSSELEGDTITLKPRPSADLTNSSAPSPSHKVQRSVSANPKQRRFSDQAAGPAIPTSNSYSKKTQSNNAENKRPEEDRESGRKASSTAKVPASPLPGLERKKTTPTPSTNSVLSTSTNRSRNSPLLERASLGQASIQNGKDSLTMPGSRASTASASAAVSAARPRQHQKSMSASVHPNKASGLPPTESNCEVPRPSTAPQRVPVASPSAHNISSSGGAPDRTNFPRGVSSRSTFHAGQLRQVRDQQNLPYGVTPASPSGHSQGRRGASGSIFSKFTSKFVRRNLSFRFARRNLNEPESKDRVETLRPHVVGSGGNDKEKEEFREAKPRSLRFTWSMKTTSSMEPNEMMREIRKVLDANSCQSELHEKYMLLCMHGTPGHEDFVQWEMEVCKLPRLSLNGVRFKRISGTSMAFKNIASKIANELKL
Sequence of WEE2 (P0C1S8 whole entry): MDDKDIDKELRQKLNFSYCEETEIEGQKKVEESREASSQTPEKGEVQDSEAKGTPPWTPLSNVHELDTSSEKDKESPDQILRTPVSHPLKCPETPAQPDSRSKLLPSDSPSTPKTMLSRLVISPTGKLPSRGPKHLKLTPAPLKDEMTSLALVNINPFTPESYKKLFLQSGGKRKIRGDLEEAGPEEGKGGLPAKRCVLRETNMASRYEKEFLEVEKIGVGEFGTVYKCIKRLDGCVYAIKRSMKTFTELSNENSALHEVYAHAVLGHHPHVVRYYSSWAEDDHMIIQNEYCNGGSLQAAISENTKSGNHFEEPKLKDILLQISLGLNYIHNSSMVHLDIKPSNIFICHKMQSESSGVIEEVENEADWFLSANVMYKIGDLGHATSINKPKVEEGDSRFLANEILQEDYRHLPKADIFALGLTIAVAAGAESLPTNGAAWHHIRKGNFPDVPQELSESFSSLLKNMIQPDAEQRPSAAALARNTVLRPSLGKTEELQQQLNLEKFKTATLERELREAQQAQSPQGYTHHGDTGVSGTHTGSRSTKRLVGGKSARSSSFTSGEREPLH
Sequence of CDK11 (Q9BWU1 whole entry): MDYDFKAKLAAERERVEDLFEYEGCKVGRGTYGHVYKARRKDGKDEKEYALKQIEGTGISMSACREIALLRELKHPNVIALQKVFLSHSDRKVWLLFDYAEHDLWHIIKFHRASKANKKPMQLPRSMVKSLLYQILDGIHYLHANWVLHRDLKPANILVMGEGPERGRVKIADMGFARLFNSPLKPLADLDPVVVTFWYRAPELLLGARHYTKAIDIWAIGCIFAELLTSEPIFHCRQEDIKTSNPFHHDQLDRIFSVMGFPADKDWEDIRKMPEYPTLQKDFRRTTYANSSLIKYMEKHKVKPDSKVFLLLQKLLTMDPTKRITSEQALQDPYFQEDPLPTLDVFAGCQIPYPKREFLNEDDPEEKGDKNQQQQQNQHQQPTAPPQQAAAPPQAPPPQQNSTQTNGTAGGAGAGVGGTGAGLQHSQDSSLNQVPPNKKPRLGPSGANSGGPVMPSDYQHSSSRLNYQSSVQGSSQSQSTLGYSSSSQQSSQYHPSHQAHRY
Sequence of TYRO3 (Q06418 41-890): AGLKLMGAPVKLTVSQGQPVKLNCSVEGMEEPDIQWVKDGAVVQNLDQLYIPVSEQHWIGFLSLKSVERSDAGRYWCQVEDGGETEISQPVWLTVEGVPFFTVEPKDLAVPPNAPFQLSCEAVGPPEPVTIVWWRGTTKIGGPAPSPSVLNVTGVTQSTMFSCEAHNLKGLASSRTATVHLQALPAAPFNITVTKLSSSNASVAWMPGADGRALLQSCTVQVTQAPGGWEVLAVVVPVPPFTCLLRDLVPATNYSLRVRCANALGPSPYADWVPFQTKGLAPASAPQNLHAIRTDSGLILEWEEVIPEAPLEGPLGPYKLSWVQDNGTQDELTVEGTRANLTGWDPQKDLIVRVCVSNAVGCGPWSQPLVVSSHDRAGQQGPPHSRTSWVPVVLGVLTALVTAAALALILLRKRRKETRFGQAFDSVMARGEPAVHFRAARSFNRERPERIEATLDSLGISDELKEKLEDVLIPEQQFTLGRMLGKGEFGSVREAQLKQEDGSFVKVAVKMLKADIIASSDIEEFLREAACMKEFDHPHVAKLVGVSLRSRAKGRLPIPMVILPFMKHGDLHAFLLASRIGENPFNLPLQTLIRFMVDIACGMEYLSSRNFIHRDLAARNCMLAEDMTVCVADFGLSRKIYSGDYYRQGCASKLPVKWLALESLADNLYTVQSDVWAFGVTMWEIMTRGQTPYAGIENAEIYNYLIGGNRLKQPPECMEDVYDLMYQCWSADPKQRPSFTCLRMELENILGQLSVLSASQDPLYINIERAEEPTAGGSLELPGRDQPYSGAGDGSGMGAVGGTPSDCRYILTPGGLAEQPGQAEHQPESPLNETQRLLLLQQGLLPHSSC
Sequence of SIK (P57059 whole entry): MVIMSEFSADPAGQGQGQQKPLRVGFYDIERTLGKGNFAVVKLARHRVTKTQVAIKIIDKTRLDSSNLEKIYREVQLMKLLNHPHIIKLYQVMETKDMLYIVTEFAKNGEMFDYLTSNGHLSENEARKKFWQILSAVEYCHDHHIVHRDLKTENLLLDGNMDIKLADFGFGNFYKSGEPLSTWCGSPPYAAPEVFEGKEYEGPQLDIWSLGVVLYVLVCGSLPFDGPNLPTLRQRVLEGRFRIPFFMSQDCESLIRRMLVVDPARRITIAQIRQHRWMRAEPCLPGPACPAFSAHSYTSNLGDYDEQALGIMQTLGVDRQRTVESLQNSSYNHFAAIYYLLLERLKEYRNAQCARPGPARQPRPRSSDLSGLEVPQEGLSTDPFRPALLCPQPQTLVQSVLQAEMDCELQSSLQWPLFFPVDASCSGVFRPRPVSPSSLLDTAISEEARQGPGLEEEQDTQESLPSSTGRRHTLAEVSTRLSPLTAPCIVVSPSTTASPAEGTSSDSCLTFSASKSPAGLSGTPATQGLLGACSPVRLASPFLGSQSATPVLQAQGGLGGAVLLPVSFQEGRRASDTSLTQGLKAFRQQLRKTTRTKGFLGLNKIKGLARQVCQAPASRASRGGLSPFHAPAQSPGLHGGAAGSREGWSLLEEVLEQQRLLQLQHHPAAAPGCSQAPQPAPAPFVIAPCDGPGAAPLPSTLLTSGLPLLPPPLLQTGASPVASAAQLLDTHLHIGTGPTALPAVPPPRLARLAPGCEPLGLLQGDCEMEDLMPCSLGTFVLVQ
Sequence of ANKK1 (Q8NFD2 whole entry): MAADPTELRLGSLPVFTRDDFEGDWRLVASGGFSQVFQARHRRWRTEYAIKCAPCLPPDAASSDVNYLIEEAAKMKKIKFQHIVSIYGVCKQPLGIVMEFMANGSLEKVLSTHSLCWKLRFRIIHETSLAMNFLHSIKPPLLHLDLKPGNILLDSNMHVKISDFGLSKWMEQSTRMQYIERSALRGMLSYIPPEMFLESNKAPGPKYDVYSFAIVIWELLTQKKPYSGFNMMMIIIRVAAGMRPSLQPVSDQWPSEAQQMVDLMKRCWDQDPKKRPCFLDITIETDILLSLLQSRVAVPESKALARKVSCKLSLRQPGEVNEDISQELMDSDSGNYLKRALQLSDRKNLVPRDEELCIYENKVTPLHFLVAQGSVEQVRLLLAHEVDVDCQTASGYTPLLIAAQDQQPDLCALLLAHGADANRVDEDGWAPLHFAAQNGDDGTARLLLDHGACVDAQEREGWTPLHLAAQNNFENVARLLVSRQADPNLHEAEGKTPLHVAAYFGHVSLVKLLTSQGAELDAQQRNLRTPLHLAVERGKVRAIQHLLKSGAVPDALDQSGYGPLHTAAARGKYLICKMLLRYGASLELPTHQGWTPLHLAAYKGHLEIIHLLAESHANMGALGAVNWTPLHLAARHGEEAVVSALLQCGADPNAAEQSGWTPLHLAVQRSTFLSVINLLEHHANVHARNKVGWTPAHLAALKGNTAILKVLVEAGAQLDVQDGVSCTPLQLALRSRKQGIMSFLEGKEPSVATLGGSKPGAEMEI
Sequence of JAK1(JH2domain-pseudokinase) (P23458 561-860 limits assumed): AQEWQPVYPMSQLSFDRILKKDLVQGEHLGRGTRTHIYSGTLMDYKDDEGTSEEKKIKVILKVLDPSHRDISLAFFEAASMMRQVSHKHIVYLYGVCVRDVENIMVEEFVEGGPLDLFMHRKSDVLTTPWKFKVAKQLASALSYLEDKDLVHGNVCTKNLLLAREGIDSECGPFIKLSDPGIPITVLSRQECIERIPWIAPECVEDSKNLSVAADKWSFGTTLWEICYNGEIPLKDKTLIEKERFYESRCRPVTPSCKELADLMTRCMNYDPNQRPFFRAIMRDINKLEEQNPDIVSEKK

`CC(C)COC(=O)c1[nH]c2ccc(F)cc2c1-c1cn(CC2CCN(CCNS(=O)(=O)c3ccc(CC(C)C)cc3)CC2)nn1` [AB668, isobutyl 5-fluoro-3-(1-((1-(2-((4-isobutylphenyl)sulfonamido)ethyl)piperidin-4-yl)methyl)-1H-1,2,3-triazol-4-yl)-1H-indole-2-carboxylate] showed a remaining activity at 2 µM (SIK) of 97%, a remaining activity at 2 µM (PKNB(M.tuberculosis)) of 100% and a remaining activity at 2 µM (GRK7) of 97%. It also gave a remaining activity at 2 µM (CDKL1) of 86%, a remaining activity at 2 µM (PIK4CB) of 75% and a remaining activity at 2 µM (CDK11) of 76%. The remaining activity at 2 µM (MAP3K15) was 51%, the remaining activity at 2 µM (PRKD2) was 88% and the remaining activity at 2 µM (PRKCE) was 98%. For the same compound, the remaining activity at 2 µM (MKNK2) was 100%, the remaining activity at 2 µM (TNK2) was 100% and the “Number of Hits S(1)” value (468 kinases) was 2. For the same compound, the “Number of Hits S(10)” value (468 kinases) was 3, the “Number of Hits S(35)” value (468 kinases) was 4 and the remaining activity at 2 µM (ABL2) was 94%. For the same compound, the remaining activity at 2 µM (ANKK1) was 100%, the remaining activity at 2 µM (DLK) was 83% and the remaining activity at 2 µM (WNK4) was 96%. The remaining activity at 2 µM (MAP3K2) was 93%, the remaining activity at 2 µM (BMPR1B) was 100% and the remaining activity at 2 µM (TAOK3) was 100%. The remaining activity at 2 µM (IGF1R) was 73%, the remaining activity at 2 µM (FLT3-autoinhibited) was 100% and the remaining activity at 2 µM (DCAMKL3) was 91%. The remaining activity at 2 µM (RET(V804L)) was 93%, the remaining activity at 2 µM (LKB1) was 89% and the remaining activity at 2 µM (KIT(V559D)) was 98%. The remaining activity at 2 µM (GRK2) was 100%, the remaining activity at 2 µM (LIMK1) was 100% and the remaining activity at 2 µM (WEE2) was 95%. The remaining activity at 2 µM (TYRO3) was 100%, the remaining activity at 2 µM (FGFR3(G697C)) was 100% and the remaining activity at 2 µM (DCAMKL2) was 93%. For the same compound, the cytotoxicity [1] was “no cytotoxicity”, the remaining activity at 2 µM (CDK4-cyclinD3) was 96% and the “%Ctrl @ 2000nM” value (FLT3(ITD,F691L)) was 96%. The remaining activity at 2 µM (CLK4) was 97%, the remaining activity at 2 µM [2] was 93% and the remaining activity at 2 µM (MARK2) was 81%. For the same compound, the remaining activity at 2 µM (IKK-epsilon) was 76%, the remaining activity at 2 µM (PKAC-alpha) was 84% and the remaining activity at 2 µM (CDKL2) was 84%. The remaining activity at 2 µM (MKNK1) was 63%, the remaining activity at 2 µM [3] was 86% and the “proliferation, cell death and apoptosis” value (786-O cells; 4 μM) was “induced significant cell proliferation arrest associated with cell death and apoptosis”. The “renal cancer cell death, dose dependent” value (786-O cells; low concentration (<5μM)) was “more efficient than CX-4945 and SGC-CK2-1”.
